Reference: PubChem BioAssay AID248 (DTP/NCI, 2004)
Where “and” joins values, the source holds several entries; their conditions need not be identical. Equal values may be shown once. Inconclusive results and toxic doses are left out. Cut-off read from the data, not from the text of the source: active = T/C of 150% or more; inactive = T/C below 125%.

System: L1210 leukemia ip in BDF1 mice, survival T/C
Test: NCI In Vivo Anticancer Drug Screen. Data for tumor model L1210 Leukemia (intraperitoneal) in B6D2F1 (BDF1) mice
Conditions: endpoint: mean survival time, higher = longer survival
Summary of the method: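 In this screen, tumor-bearing mice given compound are compared to those given vehicle, and their survival values are reported as a treated-to-control quotient.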

[1] = dose: 100.0 mg/kg/injection, schedule: Q01DX001 (ip), vehicle: saline
[2] = dose: 200.0 mg/kg/injection, schedule: Q01DX001 (ip), vehicle: saline
[3] = dose: 400.0 mg/kg/injection, schedule: Q01DX001 (ip), vehicle: saline
[4] = dose: 100.0 mg/kg/injection, schedule: Q01DX009 (ip), vehicle: saline with Tween-80
[5] = dose: 100.0 mg/kg/injection, schedule: Q04DX002 (ip), vehicle: saline with Tween-80
[6] = dose: 100.0 mg/kg/injection, schedule: Q04DX003 (ip), vehicle: saline with Tween-80
[7] = dose: 200.0 mg/kg/injection, schedule: Q01DX009 (ip), vehicle: saline with Tween-80
[8] = dose: 200.0 mg/kg/injection, schedule: Q04DX002 (ip), vehicle: saline with Tween-80
[9] = dose: 200.0 mg/kg/injection, schedule: Q04DX003 (ip), vehicle: saline with Tween-80
[10] = dose: 400.0 mg/kg/injection, schedule: Q01DX009 (ip), vehicle: saline with Tween-80
[11] = dose: 400.0 mg/kg/injection, schedule: Q04DX002 (ip), vehicle: saline with Tween-80
[12] = dose: 400.0 mg/kg/injection, schedule: Q04DX003 (ip), vehicle: saline with Tween-80
[13] = dose: 100.0 mg/kg/injection, schedule: Q04DX002 (ip), vehicle: saline
[14] = dose: 200.0 mg/kg/injection, schedule: Q04DX002 (ip), vehicle: saline
[15] = dose: 50.0 mg/kg/injection, schedule: Q01DX001 (ip), vehicle: carboxymethylcellulose (CMC)
[16] = dose: 100.0 mg/kg/injection, schedule: Q01DX001 (ip), vehicle: carboxymethylcellulose (CMC)
[17] = dose: 200.0 mg/kg/injection, schedule: Q01DX001 (ip), vehicle: carboxymethylcellulose (CMC)
[18] = dose: 400.0 mg/kg/injection, schedule: Q01DX001 (ip), vehicle: carboxymethylcellulose (CMC)
[19] = dose: 100.0 mg/kg/injection, schedule: Q04DX003 (ip), vehicle: Klucel (hydroxypropylcellulose) (HPC)
[20] = dose: 200.0 mg/kg/injection, schedule: Q04DX003 (ip), vehicle: Klucel (hydroxypropylcellulose) (HPC)
[21] = dose: 400.0 mg/kg/injection, schedule: Q04DX003 (ip), vehicle: Klucel (hydroxypropylcellulose) (HPC)
[22] = dose: 100.0 mg/kg/injection, schedule: Q01DX001 (ip), vehicle: other
[23] = dose: 200.0 mg/kg/injection, schedule: Q01DX001 (ip), vehicle: other
[24] = dose: 400.0 mg/kg/injection, schedule: Q01DX001 (ip), vehicle: other
[25] = dose: 300.0 mg/kg/injection, schedule: Q01DX001 (ip), vehicle: other

Measured: T/C

CC(C)=NNc1cccc2cccc(N)c12
inactive: [1] 97 % of control | [2] 95 % of control | [3] 97 % of control

c1ccc(N2CCSCC2)cc1
inactive: dose: 12.0 mg/kg/injection, schedule: Q01DX Z (ip), vehicle: methylcellulose (MC) 108 % of control | dose: 18.0 mg/kg/injection, schedule: Q01DX Z (ip), vehicle: methylcellulose (MC) 110 % of control | dose: 27.0 mg/kg/injection, schedule: Q01DX Z (ip), vehicle: methylcellulose (MC) 103 % of control | dose: 40.5 mg/kg/injection, schedule: Q01DX Z (ip), vehicle: methylcellulose (MC) 92 % of control

O=C(O)c1cc(C(=O)Nc2cccc3ccccc23)c(C(=O)O)cc1C(=O)Nc1cccc2ccccc12
inactive: [4] 96 % of control and 87 % of control | [5] 104 % of control and 116 % of control | [6] 100 % of control | [7] 97 % of control and 91 % of control | [8] 94 % of control and 103 % of control | [9] 105 % of control | [10] 100 % of control and 92 % of control | [11] 93 % of control and 89 % of control | [12] 98 % of control

CC(=O)OCCOc1ccc(Cl)cc1
inactive: [13] 107 % of control | [14] 96 % of control | dose: 400.0 mg/kg/injection, schedule: Q04DX002 (ip), vehicle: saline 107 % of control

CN(C)C(=S)N(C)C
inactive: [15] 104 % of control | [16] 104 % of control | dose: 100.0 mg/kg/injection, schedule: Q01DX009 (ip), vehicle: saline 90 % of control | dose: 100.0 mg/kg/injection, schedule: Q04DX003 (ip), vehicle: saline 107 % of control | [17] 101 % of control | dose: 200.0 mg/kg/injection, schedule: Q01DX009 (ip), vehicle: saline 96 % of control | dose: 200.0 mg/kg/injection, schedule: Q04DX003 (ip), vehicle: saline 107 % of control | [18] 98 % of control | dose: 400.0 mg/kg/injection, schedule: Q01DX009 (ip), vehicle: saline 98 % of control | dose: 400.0 mg/kg/injection, schedule: Q04DX003 (ip), vehicle: saline 104 % of control

CC1CCC(N=S=O)CC1 (stereo not drawn) (tested in a mixture with another compound)
inactive: dose: 18.75 mg/kg/injection, schedule: Q01DX009 (ip), vehicle: saline with Tween-80 102 % of control | dose: 25.6 mg/kg/injection, schedule: Q04DX002 (ip), vehicle: saline with Tween-80 102 % of control | dose: 37.5 mg/kg/injection, schedule: Q01DX009 (ip), vehicle: saline with Tween-80 102 % of control | dose: 64.0 mg/kg/injection, schedule: Q04DX002 (ip), vehicle: saline with Tween-80 109 % of control | dose: 75.0 mg/kg/injection, schedule: Q01DX009 (ip), vehicle: saline with Tween-80 111 % of control | [6] 101 % of control | dose: 160.0 mg/kg/injection, schedule: Q04DX002 (ip), vehicle: saline with Tween-80 95 % of control

Cn1c2ccccc2c(=O)c2cc([N+](=O)[O-])ccc21
inactive: [6] 93 % of control | [9] 97 % of control | [12] 93 % of control

CC(=O)CCc1c(C)nc(Nc2nc3cc(C)c(C)cc3[nH]2)nc1C
inactive: [19] 93 % of control | [20] 96 % of control | [21] 93 % of control

CCCc1cc(CCC)nc(NNc2nc(CCC)cc(CCC)n2)n1
inactive: [4] 104 % of control | [7] 96 % of control | [10] 110 % of control

COc1ccc(OC)c(C(=O)CCCCC(=O)O)c1
inactive: [19] 95 % of control | [20] 93 % of control | [21] 104 % of control

C1=NC(c2ccccc2)=CN(C2CCCCCC2)C1(c1ccccc1)C1CCCCCC1 (stereo not drawn)
inactive: dose: 50.0 mg/kg/injection, schedule: Q04DX002 (ip), vehicle: saline 99 % of control | dose: 100.0 mg/kg/injection, schedule: Q04DX002 (ip), vehicle: Klucel (hydroxypropylcellulose) (HPC) 98 % of control | [13] 101 % of control | dose: 200.0 mg/kg/injection, schedule: Q04DX002 (ip), vehicle: Klucel (hydroxypropylcellulose) (HPC) 88 % of control | [14] 96 % of control | dose: 400.0 mg/kg/injection, schedule: Q04DX002 (ip), vehicle: Klucel (hydroxypropylcellulose) (HPC) 95 % of control

COC(=O)C1C2CC/C=C\CCC21 (stereo not drawn)
inactive: dose: 100.0 mg/kg/injection, schedule: Q01DX009 (ip), vehicle: Klucel (hydroxypropylcellulose) (HPC) 91 % of control | dose: 200.0 mg/kg/injection, schedule: Q01DX009 (ip), vehicle: Klucel (hydroxypropylcellulose) (HPC) 87 % of control | dose: 400.0 mg/kg/injection, schedule: Q01DX009 (ip), vehicle: Klucel (hydroxypropylcellulose) (HPC) 91 % of control

O=C(SSC(=O)c1ccccc1)c1ccccc1
inactive: [15] 96 % of control | [16] 94 % of control | [17] 90 % of control | [18] 107 % of control

COc1ccc(/C(C#N)=C/c2ccncc2)cc1OC
inactive: [22] 105 % of control | [23] 94 % of control | [24] 97 % of control

CC12CCC=CC1=CC(=O)CC2 (stereo not drawn)
inactive: dose: 75.0 mg/kg/injection, schedule: Q01DX001 (ip), vehicle: other 98 % of control | dose: 150.0 mg/kg/injection, schedule: Q01DX001 (ip), vehicle: other 106 % of control | [25] 103 % of control

Cc1ccc(N2CCN(c3ccc([N+](=O)[O-])cc3)CC2)cc1Cl
inactive: [6] 100 % of control | [9] 100 % of control | [12] 98 % of control

CCCCCCCCOC(=O)c1[nH]cnc1/N=N\N(C)C
inactive: dose: 45.0 mg/kg/injection, schedule: Q01DX015 (ip), vehicle: other 103 % of control | dose: 88.0 mg/kg/injection, schedule: Q01DX001 (ip), vehicle: other 96 % of control | [22] 102 % of control | dose: 133.0 mg/kg/injection, schedule: Q01DX001 (ip), vehicle: other 88 % of control | dose: 133.0 mg/kg/injection, schedule: Q01DX009 (ip), vehicle: other 101 % of control | dose: 180.0 mg/kg/injection, schedule: Q01DX015 (ip), vehicle: other 122 % of control | [23] 109 % of control and 90 % of control | dose: 200.0 mg/kg/injection, schedule: Q01DX009 (ip), vehicle: other 95 % of control | [25] 100 % of control | dose: 300.0 mg/kg/injection, schedule: Q01DX009 (ip), vehicle: other 100 % of control | [24] 104 % of control | dose: 450.0 mg/kg/injection, schedule: Q01DX009 (ip), vehicle: other 97 % of control

O=C(O)CCC(=O)c1ccc2ccc3cccc4ccc1c2c34
inactive: [1] 98 % of control | [2] 102 % of control | [3] 103 % of control

Cn1c2ccccc2c2n[nH]c(=S)nc21
inactive: [5] 104 % of control | [8] 93 % of control | [11] 101 % of control
